PubChem BioAssay (NCI)
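Assay format: 96-well plates, 48-hour exposure. Here, GI50 denotes the concentration required for 50% inhibition of growth. TGI marks complete inhibition of growth.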

Tests used:
Assay in all cases: DTP human tumour cell line panel, 48 h
[1] = test system: HOP-62 NSCLC
[2] = test system: 786-0 renal
[3] = test system: SF-268 CNS
[4] = test system: SR leukemia
[5] = test system: NCI-H522 lung
[6] = test system: HOP-92 NSCLC
[7] = test system: MDA-MB-435
[8] = test system: NCI/ADR-RES ovarian
[9] = test system: COLO 205 colon
[10] = test system: SK-MEL-5 melanoma

SMILES	TGI [1] [µM]	TGI [2] [µM]	TGI [3] [µM]	TGI [4] [µM]	TGI [5] [µM]	TGI [6] [µM]	TGI [7] [µM]	TGI [8] [µM]	TGI [9] [µM]	TGI [10] [µM]	GI50 [1] [µM]	GI50 [3] [µM]	GI50 [4] [µM]	GI50 [5] [µM]	GI50 [6] [µM]	GI50 [7] [µM]	GI50 [8] [µM]	GI50 [9] [µM]
COc1cc(C)cc2c(-c3c(O)cc(O)c4c3C[C@H](C)N[C@H]4C)cc(-c3cc(-c4c(O)cc(O)c5c4C[C@H](C)N[C@H]5C)c4cc(C)cc(OC)c4c3O)c(O)c12	> 100	> 100	> 100	> 100	> 100	> 100	> 100	> 100	> 100	> 100								
COC(=O)/C=C1\C(=O)C=C2[C@@H]3C[C@H]4C[C@H](CC[C@@]4(C)N21)C3(C)NC(C)=O (stereo not given in full)	60.7	14.3	22.9	99.7	3.6	47.5	28.5	> 77	> 36.8	> 60								
COC1(OC)C=CC(=O)C=C1	24.5	4.55	16.7	> 100	0.885	11	12.8	13.7	28.1	46.2								
COC(=O)[C@](C)(Cc1ccccc1)NC(=O)[C@@H](C)N1[C@@H](c2ccccc2)COC1(C)C	> 100	> 100	> 100	> 100	99.3	> 100	> 100	> 100	52.2	> 100								
Cc1nc2cccc(F)c2c(=O)n1-c1nnc(C(F)(F)F)s1	> 10	> 10	> 10	> 10	> 10	> 10	> 10	> 10	> 10	> 10								
COC(=O)c1cc(C)ccc1/C=C1\Cc2c(C)cc(C)cc2C1=O	32.4	40.6	37.1	> 100	> 100	25.2	> 100	> 100	> 100	> 100								
Nn1c(Sc2nc3ccccc3c(=O)n2N)nc2ccccc2c1=O	35.9	18.6	22.3	5.1	3.57	29.3	> 49.5	28.4	28.8	11.5								
CCN(CC)C1Oc2cc3c(cc2C(c2cc(OC)c(OC)c(OC)c2)C1C)OCO3 (stereo not given)	12.9	> 40.6	> 58.2	5.01	6.01	96.5	0.535	0.771	4.8	6.68								
C=CC(OC(C)=O)c1ccc(OC(C)=O)cc1 (stereo not given)	12.3	2.99	10.7	18.5	3.57	22.8	11.9	54.3	12.9	28.7								
O=c1oc2cccnc2n1CCCCN1CCN(c2ccccc2)CC1	> 100	> 100	> 100	> 100	> 100	> 100	> 100	> 100		> 100								
CC1(C)C=[N+]([O-])C(C)(C)N1O	> 10	> 10	> 10	> 10	> 10	> 10	> 10	> 10	> 10									
CC(C#N)N(CCc1ccccc1)C(=O)c1ccccc1 (stereo not given)	> 100	> 100	> 100	> 100	> 100		> 100	> 100	> 100	> 100								
Cc1cc2nc(-c3c(N)ncc(C#N)c3-c3ccc(Cl)cc3)[nH]c2cc1C	21.7		84.2	> 100	27.9	5.23	> 100	> 100	83.4	33.4	6.36	19.8	28.7	4.07	0.275	26.2	15.7	6.24
O=c1nc2ccc3sc4ccccc4c(=O)c3n2c(=O)[nH]1	> 100	> 100	> 100	> 100	> 100		> 100	> 100	> 100	> 100								
O=[N+]([O-])c1ccc2c(c1)n1c(N3CCCC3)[n+]3ccccc3c1c1c3cccc[n+]3c(N3CCCC3)n21		> 100	42.6	> 100	> 100	> 100	> 100	> 100	> 100	> 100								
COc1cccc(NC(=O)CC(=O)N2N=C(C)C(N=Nc3ccc(C(=O)O)cc3)C2=O)c1 (stereo not given)	> 100	> 100	> 100	> 100	> 100		> 100	> 100	> 100	> 100								
Cc1nc(Nc2nc3ccccc3[nH]2)nc(Cl)c1CCCl		> 100	> 100	> 100	> 100	90.3	> 100	> 100	> 100	> 100								
